In ChEMBL document CHEMBL4627338, “Selective CDK6 degradation mediated by cereblon, VHL, and novel IAP-recruiting PROTACs” (Bioorg Med Chem Lett, 2020):
The source made the active and inactive calls. No cut-off for these calls is given here.

Legend:
[1] = molecular target: T1, Baculoviral IAP repeat-containing protein 2/Cyclin-dependent kinase 4 (Homo sapiens, UniProt P11802+Q13490); assay: Protac activity at CDK4/BIRC2 in human Jurkat cells assessed as induction of CDK4 degradation measured after 24 hrs by capillary electrophoresis; type: cell-based
Target sequence in this assay (P11802 whole entry): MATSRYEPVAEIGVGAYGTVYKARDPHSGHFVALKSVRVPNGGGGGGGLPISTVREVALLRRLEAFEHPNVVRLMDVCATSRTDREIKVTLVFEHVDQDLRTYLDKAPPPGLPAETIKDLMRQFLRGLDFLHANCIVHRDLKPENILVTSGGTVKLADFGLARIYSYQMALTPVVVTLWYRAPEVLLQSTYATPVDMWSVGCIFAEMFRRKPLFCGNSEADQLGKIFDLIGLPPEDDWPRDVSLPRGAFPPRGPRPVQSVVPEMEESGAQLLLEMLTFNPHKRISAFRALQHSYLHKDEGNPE
Target sequence in this assay (Q13490 whole entry): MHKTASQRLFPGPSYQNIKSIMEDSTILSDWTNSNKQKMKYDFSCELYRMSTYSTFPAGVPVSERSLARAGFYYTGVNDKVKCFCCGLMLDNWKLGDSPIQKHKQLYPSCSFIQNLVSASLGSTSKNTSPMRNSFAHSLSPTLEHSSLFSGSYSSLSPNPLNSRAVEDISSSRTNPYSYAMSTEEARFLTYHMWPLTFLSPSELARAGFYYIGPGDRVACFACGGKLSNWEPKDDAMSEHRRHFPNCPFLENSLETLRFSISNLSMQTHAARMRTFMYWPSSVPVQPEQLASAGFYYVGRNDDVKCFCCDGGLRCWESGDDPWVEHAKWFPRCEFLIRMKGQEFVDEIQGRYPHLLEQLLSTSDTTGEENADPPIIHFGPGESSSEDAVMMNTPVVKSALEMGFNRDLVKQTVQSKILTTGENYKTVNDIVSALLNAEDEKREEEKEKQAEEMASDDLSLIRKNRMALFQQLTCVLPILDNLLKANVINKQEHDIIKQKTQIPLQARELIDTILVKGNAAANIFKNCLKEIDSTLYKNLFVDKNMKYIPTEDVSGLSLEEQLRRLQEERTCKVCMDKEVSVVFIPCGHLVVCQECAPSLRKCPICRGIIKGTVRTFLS

[2] = molecular target: Baculoviral IAP repeat-containing protein 2/Cyclin-dependent kinase 6 (Homo sapiens, UniProt Q00534+Q13490); assay: Protac activity at CDK6/BIRC2 in human Jurkat cells assessed as induction of CDK6 degradation measured after 24 hrs by capillary electrophoresis; type: cell-based
[3] = molecular target: T1, Baculoviral IAP repeat-containing protein 2/Cyclin-dependent kinase 4; assay: Protac activity at CDK4/BIRC2 in human epoxomicin pretreated Jurkat cells assessed as decrease in CDK4 protein level measured after 5 hrs; type: cell-based
Target sequence in this assay (P11802 2-303 limits assumed): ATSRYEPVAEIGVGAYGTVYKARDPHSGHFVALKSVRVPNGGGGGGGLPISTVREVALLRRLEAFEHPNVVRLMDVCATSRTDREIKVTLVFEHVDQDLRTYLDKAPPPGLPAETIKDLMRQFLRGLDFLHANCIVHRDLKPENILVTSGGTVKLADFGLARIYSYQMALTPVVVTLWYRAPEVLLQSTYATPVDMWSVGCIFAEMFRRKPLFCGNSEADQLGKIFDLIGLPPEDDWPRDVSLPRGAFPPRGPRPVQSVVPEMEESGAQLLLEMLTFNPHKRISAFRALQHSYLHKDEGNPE
Target sequence in this assay (Q13490 whole entry partner): as the sequence (Q13490 whole entry) above

[4] = test system: Baculoviral IAP repeat-containing protein 2/Cyclin-dependent kinase 6 (Homo sapiens); assay: Protac activity at CDK6/BIRC2 in human epoxomicin pretreated Jurkat cells assessed as decrease in CDK6 protein level measured after 5 hrs
[5] = molecular target: Cyclin-dependent kinase 4/cyclin D1 (Homo sapiens, UniProt P11802); assay: Inhibition of human CDK4/cyclin-D1 using RB protein as substrate by [gamma-33P]-ATP assay; type: protein-complex assay
CDK6/cyclin D3 = CDK6/cyclin D3 (Homo sapiens, UniProt Q00534); assay: Inhibition of human CDK6/cyclin-D3 using RB protein as substrate by [gamma-33P]-ATP assay; type: protein-complex assay
[6] = molecular target: Protein cereblon/Cyclin-dependent kinase 4 (Homo sapiens, UniProt P11802+Q96SW2); assay: Protac activity at CRBN/CDK4 in human Jurkat cells assessed as induction of CDK4 degradation measured after 24 hrs by capillary electrophoresis; type: cell-based
[7] = molecular target: Protein cereblon/Cyclin-dependent kinase 6 (Homo sapiens, UniProt Q00534+Q96SW2); assay: Protac activity at CRBN/CDK6 in human Jurkat cells assessed as induction of CDK6 degradation measured after 24 hrs by capillary electrophoresis; type: cell-based
[8] = molecular target: von Hippel-Lindau disease tumor suppressor/Cyclin-dependent kinase 6 (Homo sapiens, UniProt Q00534+P40337); assay: Protac activity at CDK6/VHL in human Jurkat cells assessed as induction of CDK6 degradation measured after 24 hrs by capillary electrophoresis; type: cell-based
[9] = molecular target: T2, von Hippel-Lindau disease tumor suppressor/Cyclin-dependent kinase 4 (Homo sapiens, UniProt P11802+P40337); assay: Protac activity at CDK4/VHL in human epoxomicin pretreated Jurkat cells assessed as decrease in CDK4 protein level measured after 5 hrs; type: cell-based
Target sequence in this assay (P11802 2-303 limits assumed): as the sequence (P11802 2-303 limits assumed) above
Target sequence in this assay (P40337 whole entry partner): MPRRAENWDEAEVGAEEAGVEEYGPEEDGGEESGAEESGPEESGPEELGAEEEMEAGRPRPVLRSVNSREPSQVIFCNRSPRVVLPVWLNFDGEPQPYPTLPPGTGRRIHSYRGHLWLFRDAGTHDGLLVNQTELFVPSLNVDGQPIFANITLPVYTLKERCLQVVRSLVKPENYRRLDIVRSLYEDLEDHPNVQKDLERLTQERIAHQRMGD

[10] = molecular target: T2, von Hippel-Lindau disease tumor suppressor/Cyclin-dependent kinase 4; assay: Protac activity at CDK4/VHL in human Jurkat cells assessed as induction of CDK4 degradation measured after 24 hrs by capillary electrophoresis; type: cell-based
Target sequence in this assay (P11802 whole entry): as the sequence (P11802 whole entry) above
Target sequence in this assay (P40337 whole entry): as the sequence (P40337 whole entry partner) above

[11] = test system: von Hippel-Lindau disease tumor suppressor/Cyclin-dependent kinase 4 (Homo sapiens); assay: Protac activity at CDK4/VHL in human epoxomicin pretreated Jurkat cells assessed as decrease in CDK4 protein level measured after 5 hrs

Chain of CDK6/cyclin D3 (P30281 whole entry): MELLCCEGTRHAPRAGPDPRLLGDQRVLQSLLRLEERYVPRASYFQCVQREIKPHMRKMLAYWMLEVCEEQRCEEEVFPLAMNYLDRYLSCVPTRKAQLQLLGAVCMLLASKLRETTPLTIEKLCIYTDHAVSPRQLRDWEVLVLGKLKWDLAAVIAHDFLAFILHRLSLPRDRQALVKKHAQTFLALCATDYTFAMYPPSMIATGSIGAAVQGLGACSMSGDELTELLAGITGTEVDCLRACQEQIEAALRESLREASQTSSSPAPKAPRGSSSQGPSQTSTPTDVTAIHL
Chain of CDK6/cyclin D3 (Q00534 whole entry): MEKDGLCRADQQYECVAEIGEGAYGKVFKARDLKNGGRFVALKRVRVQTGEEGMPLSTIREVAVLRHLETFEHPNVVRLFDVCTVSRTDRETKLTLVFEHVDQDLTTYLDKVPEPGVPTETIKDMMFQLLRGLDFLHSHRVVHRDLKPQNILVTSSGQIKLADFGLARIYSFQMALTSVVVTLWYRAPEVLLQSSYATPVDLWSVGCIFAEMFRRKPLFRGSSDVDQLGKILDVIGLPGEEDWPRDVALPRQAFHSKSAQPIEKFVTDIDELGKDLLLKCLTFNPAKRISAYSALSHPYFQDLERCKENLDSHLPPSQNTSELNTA
Chain of Baculoviral IAP repeat-containing protein 2/Cyclin-dependent kinase 6 (Q00534 whole entry): as above
Chain of Baculoviral IAP repeat-containing protein 2/Cyclin-dependent kinase 6 (Q13490 whole entry): as the sequence (Q13490 whole entry) above
Chain of Cyclin-dependent kinase 4/cyclin D1 (P11802 whole entry): as the sequence (P11802 whole entry) above
Chain of Cyclin-dependent kinase 4/cyclin D1 (P24385 whole entry, further chain): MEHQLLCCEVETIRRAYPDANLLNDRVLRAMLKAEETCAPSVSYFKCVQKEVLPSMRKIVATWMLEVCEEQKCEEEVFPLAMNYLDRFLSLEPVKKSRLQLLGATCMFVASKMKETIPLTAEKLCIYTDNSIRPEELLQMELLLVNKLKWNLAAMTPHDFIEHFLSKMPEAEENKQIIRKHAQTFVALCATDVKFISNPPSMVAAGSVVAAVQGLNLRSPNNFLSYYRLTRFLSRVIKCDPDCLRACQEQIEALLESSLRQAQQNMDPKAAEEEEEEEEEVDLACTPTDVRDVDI
Chain of von Hippel-Lindau disease tumor suppressor/Cyclin-dependent kinase 6 (Q00534 whole entry): as the sequence (Q00534 whole entry) above
Chain of von Hippel-Lindau disease tumor suppressor/Cyclin-dependent kinase 6 (P40337 whole entry): as the sequence (P40337 whole entry partner) above
Chain of Protein cereblon/Cyclin-dependent kinase 6 (Q00534 whole entry): as the sequence (Q00534 whole entry) above
Chain of Protein cereblon/Cyclin-dependent kinase 6 (Q96SW2 whole entry): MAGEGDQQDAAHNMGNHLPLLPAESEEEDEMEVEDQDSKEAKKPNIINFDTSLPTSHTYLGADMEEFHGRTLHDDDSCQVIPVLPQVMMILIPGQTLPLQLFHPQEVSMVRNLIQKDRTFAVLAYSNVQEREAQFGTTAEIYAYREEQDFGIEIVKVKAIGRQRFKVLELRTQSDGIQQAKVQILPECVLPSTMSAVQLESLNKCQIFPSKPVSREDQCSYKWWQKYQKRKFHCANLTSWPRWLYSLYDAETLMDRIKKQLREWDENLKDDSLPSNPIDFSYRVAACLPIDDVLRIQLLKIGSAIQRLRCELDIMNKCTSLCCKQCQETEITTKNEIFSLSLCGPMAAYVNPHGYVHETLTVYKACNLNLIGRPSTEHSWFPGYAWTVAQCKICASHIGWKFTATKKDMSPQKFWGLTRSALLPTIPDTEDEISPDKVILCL
Chain of Protein cereblon/Cyclin-dependent kinase 4 (P11802 whole entry): as the sequence (P11802 whole entry) above
Chain of Protein cereblon/Cyclin-dependent kinase 4 (Q96SW2 whole entry): as the sequence (Q96SW2 whole entry) above

SMILES | pDC50 [1] | pDC50 [2] | IC50 [5] [µM] | IC50 (CDK6/cyclin D3; read-out: pIC50 (converted)) [µM] | also measured
CN[C@@H](C)C(=O)N[C@H](C(=O)N1C[C@@H](NC(=O)CCCCCCCN2CCN(c3ccc(Nc4ncc5c(C)c(C(C)=O)c(=O)n(C6CCCC6)c5n4)nc3)CC2)C[C@H]1C(=O)Nc1c(F)cccc1F)C(C)(C)C | 7.7 | 8.3 | 0.00501 | 0.0126 | Activity [3]: inactive; Activity [4]: inactive
CN[C@@H](C)C(=O)N[C@H](C(=O)N1C[C@@H](NC(=O)COCCOCCOCCN2CCN(c3ccc(Nc4ncc5c(C)c(C(C)=O)c(=O)n(C6CCCC6)c5n4)nc3)CC2)C[C@H]1C(=O)Nc1c(F)cccc1F)C(C)(C)C | 7.1 | 7.8 | 0.00631 | 0.0158 | –
CC(=O)c1c(C)c2cnc(Nc3ccc(N4CCN(CCOCCOCCNC(=O)CNc5cccc6c5C(=O)N(C5CCC(=O)NC5=O)C6=O)CC4)cn3)nc2n(C2CCCC2)c1=O (stereo unspecified) | – | – | 0.00631 | 0.0158 | pDC50 [6]: 7.3; pDC50 [7]: 8.3
CC(=O)c1c(C)c2cnc(Nc3ccc(N4CCN(CCCCCCCC(=O)N[C@H](C(=O)N5C[C@H](O)C[C@H]5C(=O)N[C@@H](C)c5ccc(-c6scnc6C)cc5)C(C)(C)C)CC4)cn3)nc2n(C2CCCC2)c1=O | – | – | 0.0316 | – | DC50 [8]: 0.004 µM; pDC50 [8]: 8.4; Activity [9]: inactive; pDC50 [10]: 7.6; Activity [11]: inactive; IC50 (CDK6/cyclin D3; read-out: IC50): 0.2 µM
CN[C@@H](C)C(=O)N[C@H](C(=O)N1C[C@@H](NC(=O)CCOCCOCCOCCNC(=O)CN2CCN(c3ccc(Nc4ncc5c(C)c(C(C)=O)c(=O)n(C6CCCC6)c5n4)nc3)CC2)C[C@H]1C(=O)Nc1c(F)cccc1F)C(C)(C)C | 5.3 | 5.8 | 0.0158 | 0.0398 | –
CC(=O)c1c(C)c2cnc(Nc3ccc(N4CCN(CCCCNC(=O)CNc5cccc6c5C(=O)N(C5CCC(=O)NC5=O)C6=O)CC4)cn3)nc2n(C2CCCC2)c1=O (stereo unspecified) | – | – | 0.00316 | – | –
